US9271497B2, “1-(substituted-benzoyl)-5-fluoro-4-imino-3-methyl-3,4-dihydropyrimidin-2(1H)-one derivatives” (DOW AGROSCIENCES LLC, priority 2012, dated 2016)

Tests used:
[1] = test system: Mycosphaerella graminicola; Anamorph: Septoria tritici; Bayer Code SEPTTR; experiment: Fungicidal activity against leaf blotch of wheat, one-day protectant (1DP); type: in vivo; details: wheat plants (variety Yuma), % disease control rating
Procedure: (§1) Evaluation of Fungicidal Activity: Leaf Blotch of Wheat (Mycosphaerella graminicola; Anamorph: Septoria tritici; Bayer Code […]) Wheat plants (variety Yuma) were grown from seed in a greenhouse in 50% mineral soil/50% soil-less Metro mix until the first leaf was fully emerged, with 7-10 seedlings per pot. These plants were inoculated with an aqueous spore suspension of Septoria tritici either prior to or after fungicide treatments. After inoculation the plants were kept in 100% relative humidity (one day in a dark dew chamber followed by two to three days in a lighted dew chamber) to permit spores to germinate and infect the leaf. The plants were then transferred to a greenhouse for disease to develop. The following table presents the activity of typical compounds of the present disclosure when evaluated in these experiments. The effectiveness of the test compounds in controlling disease was determined by assessing the severity of disease on treated plants, then converting the severity to percent control based on the level of disease on untreated, inoculated plants.

[2] = test system: Mycosphaerella graminicola; Anamorph: Septoria tritici; Bayer Code SEPTTR; experiment: Fungicidal activity against leaf blotch of wheat, three-day curative (3DC); type: in vivo; details: wheat plants (variety Yuma), % disease control rating
Procedure: as §1

Row | melting point [°C] | SMILES | SEPTTR 100 PPM 1DP [1] | SEPTTR 100 PPM 3DC [2]
1 | 141.6 to 142.6 | Cn1c(=N)c(F)cn(C(=O)c2cc(Cl)cc(Cl)c2)c1=O [Compound 1, 1-(3,5-dichlorobenzoyl)-5-fluoro-4-imino-3-methyl-3,4-dihydropyrimidin-2(1H)-one] | A (76-100) | A (76-100)
2 | 103 to 107 | Cc1ccc(C(=O)n2cc(F)c(=N)n(C)c2=O)cc1 [Compound 2] | A (76-100) | A (76-100)
